What is called IC50 is the point on the concentration scale where inhibition reaches its midpoint.

The structures appear in SMILES notation.

Our source for the IC50 values is patent publication US20150011751A1, “NOVEL TRIAZINE DERIVATIVE” (CARNA BIOSCIENCES, INC., priority 2012, published 2015).

The target in the assay is Dephosphorylated BTK (Homo sapiens, UniProt Q06187). Kind of assay: Test of activity inhibition against dephosphorylated BTK (mobility shift assay).
Chain of Dephosphorylated BTK (Q06187 whole entry): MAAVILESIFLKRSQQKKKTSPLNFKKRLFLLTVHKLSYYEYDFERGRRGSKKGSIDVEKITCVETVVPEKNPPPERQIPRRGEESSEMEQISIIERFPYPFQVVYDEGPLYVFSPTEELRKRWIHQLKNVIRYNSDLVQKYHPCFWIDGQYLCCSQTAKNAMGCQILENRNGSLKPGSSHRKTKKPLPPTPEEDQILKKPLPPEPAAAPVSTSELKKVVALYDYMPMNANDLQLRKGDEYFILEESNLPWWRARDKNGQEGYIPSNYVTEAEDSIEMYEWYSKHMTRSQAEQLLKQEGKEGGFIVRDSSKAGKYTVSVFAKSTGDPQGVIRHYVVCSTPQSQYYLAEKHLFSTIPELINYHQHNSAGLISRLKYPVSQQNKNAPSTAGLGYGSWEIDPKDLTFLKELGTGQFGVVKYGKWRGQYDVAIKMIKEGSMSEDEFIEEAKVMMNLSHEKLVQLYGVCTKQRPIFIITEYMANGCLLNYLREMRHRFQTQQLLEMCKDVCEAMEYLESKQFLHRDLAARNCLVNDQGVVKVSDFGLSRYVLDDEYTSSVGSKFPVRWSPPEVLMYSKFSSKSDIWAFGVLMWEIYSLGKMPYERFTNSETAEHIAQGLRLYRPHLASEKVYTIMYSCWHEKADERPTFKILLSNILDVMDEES
Take `COCCn1cc(Nc2nc(N)nc(-c3cccc(N4CCc5cc(C6CC6)cc(F)c5C4=O)c3CO)n2)cn1` [Example 212, 2-[3-(4-Amino-6-{[1-(2-methoxyethyl)-1H-py-razol-4-yl]amino}-1,3,5-triazin-2-yl)-2-(hy-droxymethyl)phenyl]-6-cyclopropyl-8-fluoro-3,4-dihydroisoquinolin-1(2H)-one]: the half-maximal inhibitory concentration (IC50) amounted to 0.9 nM.
The same measure for `Nc1nc(Nc2cnn(C3CCOCC3)c2)nc(-c2cccc(N3CCc4cc(C5CC5)cc(F)c4C3=O)c2CO)n1` [Example 218, 2-[3-(4-Amino-6-{[1-(tetra-hydro-2H-pyran-4-yl)-1H-pyrazol-4-yl]amino}-1,3,5-triazin-2-yl)-2-(hydroxymethyl)phenyl]-6-cycloprop-yl-8-fluoro-3,4-dihydro-isoquinolin-1(2H)-one]: 0.2 nM; for `CCOC(=O)c1cc(Nc2nc(N)nc(-c3cccc(N4CCc5cc(C6CC6)cc(F)c5C4=O)c3CO)n2)cn1C` [Example 219, Ethyl 4-({4-amino-6-[3-(6-cyclo-propyl-8-fluoro-1-oxo-3,4-dihydroisoquinolin-2(1H)-yl)-2-(hydroxy-methyl)phenyl]-1,3,5-triazin-2-yl}ami-no)-1-methyl-1H-pyrrole-2-carboxylate]: 0.8 nM.
With `CC(=O)N1CCN(c2ccc(Nc3nc(N)nc(-c4cccc(N5CCc6cc(C7CC7)cc(F)c6C5=O)c4CO)n3)cc2)CC1` [Example 220, 2-[3-(4-{[4-(4-Acetyl-piperazin-1-yl)phenyl]amino}-6-amino-1,3,5-triazin-2-yl)-2-(hy-droxymethyl)phenyl]-6-cyclopropyl-8-fluoro-3,4-dihydroisoquinolin-1(2H)-one], the IC50 amounted to 2.3 nM.
Regarding `CC(C)n1cc(Nc2nc(N)nc(-c3cccc(N4CCc5cc(C6CC6)cc(F)c5C4=O)c3CO)n2)cn1` [Example 222, 2-(3-{4-Amino-6-[(1-iso-propyl-1H-pyrazol-4-yl)amino]-1,3,5-tria-zin-2-yl}-2-(hydroxymeth-yl)phenyl)-6-cyclo-propyl-8-fluoro-3,4-di-hydroisoquinolin-1(2H)-one], the IC50 turned out to be 0.4 nM.
Under `Nc1nc(Nc2cnn(C3CCNCC3)c2)nc(-c2cccc(N3CCc4cc(C5CC5)cc(F)c4C3=O)c2CO)n1` [Example 223, 2-[3-(4-Amino-6-{[1-(piperidin-4-yl)-1H-py-razol-4-yl]amino}-1,3,5-triazin-2-yl)-2-(hy-droxymethyl)phenyl]-6-cyclopropyl-8-fluoro-3,4-dihydro-isoquinolin-1(2H)-one] stands 0.6 nM; under `Cn1cc(Nc2nc(N)nc(-c3cccc(N4CCc5cc(C6CC6)cc(F)c5C4=O)c3CO)n2)cc1C(=O)O` [Example 224, 4-({4-Amino-6-[3-(6-cyclo-propyl-8-fluoro-1-oxo-3,4-dihydroisoquinolin-2(1H)-yl)-2-(hydroxy-methyl)phenyl]-1,3,5-triazin-2-yl}ami-no)-1-methyl-1H-pyr-role-2-carboxylic acid], 6.6 nM; under `Nc1nc(Nc2cnn(CCCO)c2)nc(-c2cccc(N3CCc4cc(C5CC5)cc(F)c4C3=O)c2CO)n1` [Example 225, 2-[3-(4-Amino-6-{[1-(3-hydroxypropyl)-1H-py-razol-4-yl]amino}-1,3,5-triazin-2-yl)-2-(hy-droxymethyl)phenyl]-6-cyclopropyl-8-fluoro-3,4-dihydro-isoquinolin-1(2H)-one], 1.2 nM.
Take `Nc1nc(Nc2ccc(N3CCOCC3)cc2)nc(-c2cccc(N3CCc4c(sc5c4CCCC5)C3=O)c2CO)n1` [Example 227, 2-(3-{4-Amino-6-[(4-morpho-linophenyl)amino]-1,3,5-triazin-2-yl}-2-(hydroxymethyl)phe-nyl)-3,4,5,6,7,8-hexa-hydrobenzo[4,5]thieno [2,3-c]pyridin-1(2H)-one]: the IC50 was determined as 3.5 nM.
As for `Nc1nc(Nc2ccsc2)nc(-c2cccc(N3CCc4cc(C5CC5)cc(F)c4C3=O)c2CO)n1` [Example 228, 2-{3-[4-Amino-6-(thio-phen-3-ylamino)-1,3,5-triazin-2-yl]-2-(hy-droxymethyl)phenyl}-6-cyclopropyl-8-fluoro-3,4-dihydroisoquinolin-1(2H)-one], the concentration for half-maximal inhibition (IC50) stood at 2.4 nM.
Turning to `CC(C)n1ccc(Nc2nc(N)nc(-c3cccc(N4CCc5cc(C6CC6)cc(F)c5C4=O)c3CO)n2)c1` [Example 229, 2-(3-{4-Amino-6-[(1-iso-propyl-1H-pyrrol-3-yl)amino]-1,3,5-triazin-2-yl}-2-(hydroxymeth-yl)phenyl)-6-cyclopro-pyl-8-fluoro-3,4-di-hydroisoquinolin-1(2H)-one], the half-maximal inhibitory concentration (IC50) was 2.5 nM.
As to `CCn1ccc(Nc2nc(N)nc(-c3cccc(N4CCc5cc(C6CC6)cc(F)c5C4=O)c3CO)n2)c1` [Example 231, 2-(3-{4-Amino-6-[(1-eth-yl-1H-pyrrol-3-yl)ami-no]-1,3,5-triazin-2-yl}-2-(hydroxymethyl)phenyl)-6-cyclopropyl-8-fluoro-3,4-dihydro-isoquinolin-1(2H)-one], the IC50 amounted to 1.7 nM.
With `CNC(=O)c1cc(Nc2nc(N)nc(-c3cccc(N4CCc5cc(C6CC6)cc(F)c5C4=O)c3CO)n2)cn1C` [Example 232, 4-({4-Amino-6-[3-(6-cyclo-propyl-8-fluoro-1-oxo-3,4-dihydroisoquinolin-2(1H)-yl)-2-(hy-droxymethyl)phenyl]-1,3,5-triazin-2-yl}ami-no)-N,1-dimethyl-1H-pyrrole-2-carboxamide], the IC50 came out at 0.7 nM.
Under `CS(=O)(=O)n1cc(Nc2nc(N)nc(-c3cccc(N4CCc5cc(C6CC6)cc(F)c5C4=O)c3CO)n2)cn1` [Example 233, 2-[3-(4-Amino-6-{[1-(meth-ylsulfonyl)-1H-py-razol-4-yl]amino}-1,3,- 5-triazin-2-yl)-2-(hy-droxymethyl)phenyl]-6-cyclopropyl-8-fluoro-3,4-dihydroisoquino-lin-1(2H)-one] stands 4.2 nM.
Turning to `Nc1nc(Nc2ccn(CCO)c2)nc(-c2cccc(N3CCc4cc(C5CC5)cc(F)c4C3=O)c2CO)n1` [Example 234, 2-[3-(4-Amino-6-{[1-(2-hydroxyethyl)-1H-pyrrol-3-yl]amino}-1,3,5-triazin-2-yl)-2-(hy-droxymethyl)phenyl]-6-cyclopropyl-8-fluoro-3,4-dihydroisoquinolin-1(2H)-one], the 50% inhibitory concentration (IC50) came to 2.7 nM.
For the molecule `Nc1nc(Nc2cnn([C@H]3CCOC3)c2)nc(-c2cccc(N3CCc4cc(C5CC5)cc(F)c4C3=O)c2CO)n1` [Example 235, (S)-2-[3-(4-Amino-6-{[1-(tetrahydrofuran-3-yl)-1H-pyrazol-4-yl]amino}-1,3,5-triazin-2-yl)-2-(hydroxymeth-yl)phenyl]-6-cyclopropyl-8-fluoro-3,4-dihydro-isoquinolin-1(2H)-one], the half-maximal inhibitory concentration (IC50) came to 0.8 nM.
Under `Nc1nc(Nc2cnn([C@@H]3CCOC3)c2)nc(-c2cccc(N3CCc4cc(C5CC5)cc(F)c4C3=O)c2CO)n1` [Example 236, (R)-2-[3-(4-Amino-6-{[1-(tetrahydrofuran-3-yl)-1H-pyrazol-4-yl]amino}-1,3,5-triazin-2-yl)-2-(hydroxymeth-yl)phenyl]-6-cyclopropyl-8-fluoro-3,4-dihydro-isoquinolin-1(2H)-one] stands 0.8 nM; under `Nc1nc(Nc2cnn(CCN3CCOCC3)c2)nc(-c2cccc(N3CCc4cc(C5CC5)cc(F)c4C3=O)c2CO)n1` [Example 237, 2-[3-(4-Amino-6-{[1-(2-morpholinoethyl)-1H-pyrazol-4-yl]amino}-1,3,5-triazin-2-yl)-2-(hydroxymethyl)phenyl]-6-cyclopropyl-8-fluoro-3,4-dihydro-isoquinolin-1(2H)-one], 0.8 nM.
For `Nc1nc(Nc2cnn(C3CC3)c2)nc(-c2cccc(N3CCc4cc(C5CC5)cc(F)c4C3=O)c2CO)n1` [Example 238, 2-(3-{4-Amino-6-[(1-cyclo-propyl-1H-pyrazol-4-yl)amino]-1,3,5-tri-azin-2-yl}-2-(hydroxy-methyl)phenyl)-6-cyclo-propyl-8-fluoro-3,4-dihydroisoquinolin-1 (2H)-one], the half-inhibitory concentration (IC50) is 0.9 nM.
`Nc1nc(Nc2cnn(C3CCCC3)c2)nc(-c2cccc(N3CCc4cc(C5CC5)cc(F)c4C3=O)c2CO)n1` [Example 239, 2-(3-{4-Amino-6-[(1-cyclo-pentyl-1H-pyrazol-4-yl)amino]-1,3,5-tri-azin-2-yl}-2-(hydroxy-methyl)phenyl)-6-cyclo-propyl-8-fluoro-3,4-dihydroisoquinolin-1 (2H)-one]: the 50% inhibitory concentration (IC50) is 0.5 nM.
As for `Nc1nc(Nc2cnn(CC(F)(F)F)c2)nc(-c2cccc(N3CCc4cc(C5CC5)cc(F)c4C3=O)c2CO)n1` [Example 240, 2-[3-(4-Amino-6-{[1-(2,2,2-trifluoroethyl)-1H-pyrazol-4-yl]amino}-1,3,5-triazin-2-yl)-2-(hydroxymethyl)phe-nyl]-6-cyclopropyl-8-fluoro-3,4-dihydroiso-quinolin-1(2H)-one], the IC50 was determined as 1.1 nM.
The same measure for `CC(C)(C)n1cc(Nc2nc(N)nc(-c3cccc(N4CCc5cc(C6CC6)cc(F)c5C4=O)c3CO)n2)cn1` [Example 241, 2-[3-(4-Amino-6-{[1-(tert-butyl)-1H-pyrazol-4-yl]amino}-1,3,5-tri-azin-2-yl)-2-(hydroxy-methyl)phenyl]-6-cyclo-propyl-8-fluoro-3,4-dihydroisoquinolin-1(2H)-one]: 0.6 nM.
On to `Nc1nc(Nc2ccc(N3CCOCC3)c(F)c2)nc(-c2cccc(N3CCc4cc(C5CC5)cc(F)c4C3=O)c2CO)n1` [Example 242, 2-(3-{4-Amino-6-[(3-fluoro-4-morpholinophe-nyl)amino]-1,3,5-tri-azin-2-yl}-2-(hydroxymeth-yl)phenyl)-6-cyclo-propyl-8-fluoro-3,4-di-hydroisoquinolin-1(2H)-one], for which the IC50 was 1.5 nM.
In the case of `Nc1nc(Nc2cccc(N3CCOCC3)c2)nc(-c2cccc(N3CCc4cc(C5CC5)cc(F)c4C3=O)c2CO)n1` [Example 243, 2-(3-{4-Amino-6-[(3-morpho-linophenyl)amino]-1,3,5-triazin-2-yl}-2-(hydroxymethyl)phe-nyl)-6-cyclopropyl-8-fluoro-3,4-dihydroiso-quinolin-1(2H)-one], the IC50 amounted to 2.3 nM.
With `Nc1nc(Nc2ccc(N3CCCC3)cc2)nc(-c2cccc(N3CCc4cc(C5CC5)cc(F)c4C3=O)c2CO)n1` [Example 244, 2-[3-(4-Amino-6-{[4-(pyr-rolidin-1-yl)phenyl]amino}-1,3,5-triazin-2-yl)-2-(hydroxymeth-yl)phenyl]-6-cyclopro-pyl-8-fluoro-3,4-dihy-droisoquinolin-1(2H)-one], the 50% inhibitory concentration (IC50) came out at 4.6 nM.
